Laboratory results as given in paper PMC7224190, “Pharmacological inhibition of PRMT7 links arginine monomethylation to the cellular stress response” (Nature Communications, 2020).

Columns and labels:
PRMT7 = target: T1, PRMT7 (Homo sapiens, UniProt Q9NVM4); experiment: SPR kinetics (Biacore T200); also radiometric SPA IC50 […]; type: binding; design: Bio-PRMT7 (amino acids 1–692)
T1 sequence (Q9NVM4 1-692): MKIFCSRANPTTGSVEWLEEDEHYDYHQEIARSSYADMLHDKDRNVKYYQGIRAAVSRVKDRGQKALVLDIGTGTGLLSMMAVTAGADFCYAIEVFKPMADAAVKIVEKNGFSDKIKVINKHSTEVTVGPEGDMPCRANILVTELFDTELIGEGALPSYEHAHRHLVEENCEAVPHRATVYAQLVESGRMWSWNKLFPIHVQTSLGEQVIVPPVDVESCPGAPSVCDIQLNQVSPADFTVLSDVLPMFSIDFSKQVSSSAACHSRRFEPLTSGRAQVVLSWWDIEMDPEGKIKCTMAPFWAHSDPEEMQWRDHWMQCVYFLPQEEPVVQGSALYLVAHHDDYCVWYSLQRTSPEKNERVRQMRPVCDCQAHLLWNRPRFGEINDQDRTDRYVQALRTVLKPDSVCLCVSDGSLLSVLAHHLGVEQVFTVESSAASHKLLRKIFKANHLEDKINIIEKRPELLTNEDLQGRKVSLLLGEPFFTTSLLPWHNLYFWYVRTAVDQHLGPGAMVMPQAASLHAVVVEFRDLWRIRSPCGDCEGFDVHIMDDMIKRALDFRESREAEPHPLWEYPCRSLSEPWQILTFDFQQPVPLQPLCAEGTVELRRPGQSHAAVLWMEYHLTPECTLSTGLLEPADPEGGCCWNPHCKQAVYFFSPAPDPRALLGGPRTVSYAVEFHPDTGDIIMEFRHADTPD

PRMT8 = PRMT8 (Homo sapiens, UniProt Q9NR22); experiment: biochemical; design: radiometric methyltransferase assay with tritiated SAM, IC50
Method: (§1) The methyltransferase selectivity was assessed at two compound concentrations of 1 and 10 μM by radiometric assays using tritiated-SAM. For methyltransferases: MLL1, MLL3, EZH1 (PRC2), and EZH2 (PRC2), G9a, GLP, SUV39H1, SUV39H2, SUV420H1, SUV420H2, SETD2, SETD8, SETDB1, SETD7, PRMT1, PRMT3, PRMT4, PRMT5/ MEP50 complex, PRMT6, PRMT7, PRMT8, PRMT9, PRDM9, SMYD2, SMYD3, DNMT1, and BCDIN3D the incorporation of a tritium-labeled methyl group into biotinylated substrate was monitored using scintillation proximity assay (SPA). Briefly, a 10 μL reaction containing ^3H-SAM and substrate at concentrations close to the apparent Km values for each enzyme (balanced conditions) was prepared. The reactions were quenched with 10 μL of 7.5 M guanidine hydrochloride; 180 μL of 20 mM Tris buffer (pH 8.0) were added, and the mixture was transferred to a 96-well FlashPlate and incubated for 1 h. The counts per minute (CPM) was measured on a TopCount plate reader. The CPM in the absence of compound or enzyme was defined as 100% activity and background (0%), respectively, for each dataset[74]–[76]. Selectivity of SGC8158 against 342 kinases was evaluated in a kinase panel TR-FRET assay at 1 and 0.1 μM compound in duplicates as described before. Briefly, tagged kinases were incubated with compound and staurosporine-based fluorescent probe where the binding was detected using Tb conjugated anti-tag antibody energy transfer to the probe. Excitation wavelength was 337 nm and fluorescent emission signal was measured for Tb (486 nm) and fluorescent probe (BODIPY, 515 nm). Specific and non-specific binding was determined in the absence and presence of unlabeled staurosporine. Assays using biotinylated H2B (23–37) as a substrate were performed in buffer (20 mM Tris–HCl, pH 8.5, 0.01% Tween-20, and 5 mM DTT) containing 5 nM PRMT7, 1.1 µM ^3H-SAM (Cat.# NET155V250UC; Perkin Elmer; www.perkinelmer.com) and 0.3 µM H2B (23–37). The reaction mixtures were incubated for 60 min at 23 °C. To stop the enzymatic reactions, 10 µL of 7.5 M guanidine hydrochloride was added, followed by 180 µL of buffer (20 mM Tris, pH 8.0), mixed and then transferred to a 96-well FlashPlate (Cat.# SMP103; Perkin Elmer; www.perkinelmer.com). After mixing, the reaction mixtures in Flash plates were incubated for 1 h and the CPM were measured using Topcount plate reader (Perkin Elmer, www.perkinelmer.com). The CPM counts in the absence of compound for each dataset were defined as 100% activity. In the absence of the enzyme, the CPM counts in each dataset were defined as background (0%). The IC50 values were determined using GraphPad Prism 7 software. For the kinetic analysis of HSPA8 methylation by PRMT7, the assay mixture contained 20 mM Tris–HCl, pH 8.5, 0.01% Tween-20, and 5 mM dithiothreitol (DTT), 1 mM MgCl2, 1 mM ATP where indicated, 250 nM PRMT7, fixed concentration (20 µM) of SAM, various concentrations (up to 40 µM) of HSPA8; or fixed concentration (10 µM) of HSPA8 with different concentrations of SAM (up to 20 µM). […] To determine the mode of action, the experiments were performed in the presence of fixed biotinylated H2B peptide (residues 23–37) or HSPA8 substrate concentration and increasing SAM concentration or at fixed concentration of SAM and varying concentration of the substrate. Twenty µL of reaction mixtures were incubated at 23 °C for 60 min. To stop reactions, 100 µL of 10% trichloroacetic acid (TCA) was added, mixed and transferred to filter-plates (Millipore; cat.# MSFBN6B10; www.millipore.com). Plates were centrifuged at 930 × g (Allegra X-15R—Beckman Coulter, Inc.) for 2 min followed by two additional 10% TCA washes and one ethanol wash followed by centrifugation. Plates were dried and 30 µL MicroScint-O (

PRMT5-MEP50 = PRMT5-MEP50 (Homo sapiens, UniProt O14744); experiment: biochemical; design: radiometric methyltransferase assay with tritiated SAM, IC50
Method: as §1

PRMT6 = PRMT6 (Homo sapiens, UniProt Q96LA8); experiment: biochemical; design: radiometric methyltransferase assay with tritiated SAM, IC50
Method: as §1

Sequence of PRMT8 (Q9NR22 whole entry): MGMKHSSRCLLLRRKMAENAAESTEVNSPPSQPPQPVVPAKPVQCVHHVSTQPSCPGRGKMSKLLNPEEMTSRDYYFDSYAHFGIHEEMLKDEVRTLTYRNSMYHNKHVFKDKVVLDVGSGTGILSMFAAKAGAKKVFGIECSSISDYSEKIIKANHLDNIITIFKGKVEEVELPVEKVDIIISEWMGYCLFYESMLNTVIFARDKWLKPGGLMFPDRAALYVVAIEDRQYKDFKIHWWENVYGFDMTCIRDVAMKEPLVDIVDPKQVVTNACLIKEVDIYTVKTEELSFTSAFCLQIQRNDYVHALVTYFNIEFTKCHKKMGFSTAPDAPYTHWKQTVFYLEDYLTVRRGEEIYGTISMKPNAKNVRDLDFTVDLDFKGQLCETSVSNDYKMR
Sequence of PRMT5-MEP50 (O14744 whole entry): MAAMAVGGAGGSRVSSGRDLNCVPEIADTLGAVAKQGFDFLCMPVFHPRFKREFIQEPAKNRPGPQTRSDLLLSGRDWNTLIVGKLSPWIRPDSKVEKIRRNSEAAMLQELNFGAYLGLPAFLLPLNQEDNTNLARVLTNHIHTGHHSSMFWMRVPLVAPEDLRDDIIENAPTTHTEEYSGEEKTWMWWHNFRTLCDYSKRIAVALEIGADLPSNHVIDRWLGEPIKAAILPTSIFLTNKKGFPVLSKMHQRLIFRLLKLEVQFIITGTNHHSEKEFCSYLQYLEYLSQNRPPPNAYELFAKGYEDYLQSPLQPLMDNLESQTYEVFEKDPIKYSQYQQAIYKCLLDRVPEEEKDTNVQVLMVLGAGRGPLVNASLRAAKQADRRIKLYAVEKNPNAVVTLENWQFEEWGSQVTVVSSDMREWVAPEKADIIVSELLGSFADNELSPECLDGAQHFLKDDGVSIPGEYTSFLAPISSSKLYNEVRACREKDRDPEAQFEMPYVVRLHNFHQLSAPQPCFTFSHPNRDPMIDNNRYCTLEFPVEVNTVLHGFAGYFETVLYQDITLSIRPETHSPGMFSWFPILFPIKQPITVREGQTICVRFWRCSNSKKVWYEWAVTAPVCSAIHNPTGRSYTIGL
Sequence of PRMT5-MEP50 (Q9BQA1 whole entry partner): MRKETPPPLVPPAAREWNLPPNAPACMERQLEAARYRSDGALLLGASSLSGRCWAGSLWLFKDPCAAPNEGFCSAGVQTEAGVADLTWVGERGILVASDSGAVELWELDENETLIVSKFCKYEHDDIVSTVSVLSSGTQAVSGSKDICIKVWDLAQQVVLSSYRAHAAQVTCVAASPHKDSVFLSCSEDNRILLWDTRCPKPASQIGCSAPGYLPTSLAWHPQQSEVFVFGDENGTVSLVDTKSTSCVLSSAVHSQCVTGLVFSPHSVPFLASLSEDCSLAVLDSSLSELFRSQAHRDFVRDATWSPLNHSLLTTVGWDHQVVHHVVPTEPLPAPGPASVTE
Sequence of PRMT6 (Q96LA8 whole entry): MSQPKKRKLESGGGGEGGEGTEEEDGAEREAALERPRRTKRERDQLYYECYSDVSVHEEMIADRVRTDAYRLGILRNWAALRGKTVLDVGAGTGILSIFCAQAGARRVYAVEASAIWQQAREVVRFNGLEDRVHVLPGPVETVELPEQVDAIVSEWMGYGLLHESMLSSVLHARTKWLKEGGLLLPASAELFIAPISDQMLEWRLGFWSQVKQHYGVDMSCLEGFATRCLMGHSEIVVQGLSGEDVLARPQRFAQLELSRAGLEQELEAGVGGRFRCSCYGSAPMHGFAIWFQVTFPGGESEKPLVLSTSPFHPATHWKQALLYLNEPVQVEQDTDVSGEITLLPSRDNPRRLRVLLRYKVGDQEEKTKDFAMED

Structure (SMILES)	Kd (PRMT7) [µM]	IC50 (PRMT8) [µM]	IC50 (PRMT5-MEP50) [µM]	IC50 (PRMT6) [µM]
Nc1ncnc2c1ncn2[C@@H]1O[C@H](CSCCCCNCc2cccc(-c3ccc(Cl)cc3)c2)[C@@H](O)[C@H]1O [SGC8158]	0.0064 ± 0.0012			
Nc1ncnc2c1ncn2[C@@H]1O[C@H](CSCCCNCc2cccc(-c3ccc(Cl)cc3)c2)[C@@H](O)[C@H]1O [SGC8172]		~1.5	0.044	~1.2
